US9220794B2, “Two-photon fluorescent probes for imaging of total sulfide in live cell and tissue, and quantitative estimation of total sulfide concentration using the same” (Korea University Research and Business Foundation, priority 2013, dated 2015)
One block for each molecule: values may come before it.

Tests used:
[1] = tested on: rat colon tissue; experiment: Ratiometric TPM imaging (F2/F1) of rat colon slices; type: in vivo; conditions: rats given 5-FU 150 mg/kg i.p., 8 hours, probe 2-6
Description: The utility of the compound of [Chemical Formula 2-6] was investigated in living tissues from a 5-week-old rat colon. The inventors were particularly interested in the mucosa, muscularis mucosae and submucosa because they are invaded in the early stage of tumor (FIG. 4c). Since it takes a long time to stain the tissues during which they may be deformed, excess amount (20 μM) of the compound of [Chemical Formula 2-6] was used to facilitate staining.
Because the structure of the colon tissue is heterogeneous, TPEF intensities were acquired from 150 sections along the z-direction at a depth of about 90-170 μm using two detection windows (1 and 2) to visualize the overall sulfide distribution.
Therefore, the sections were divided into two regions and they were assigned as mucosa (90-150 μm) and submucosa including the muscularis mucosae (151-170 μm).
(§1) Male Sprague-Dawley rats (235-265 g) were divided into two groups (5-FU and control groups). In the 5-FU group, 150 mg/kg of 5-FU (SoloPak Laboratories, Franklin Park, Ill.) were intraperitoneally injected into the rats. The rats of the control group were injected with saline. Each group consisted of 4 rats.
All the rats were injected between 9 pm and 12 midnight, were allowed free access to food and water and were housed in the same room with 8-hour cycles.
(§2) 8 hours after the intraperitoneal injection, all the rats were sacrificed. Laparotomy was performed after anesthetizing the rats.
Slices were prepared from the colon of the rats. The colon slices were cut into 2-cm long segments, opened by longitudinal incision and then treated with Dulbecco's phosphate-buffered saline (D-PBS; […]).
The colon slices were incubated with the compound of [Chemical Formula 2-6] (20 μM) in D-PBS bubbled with 95% O2 and 5% CO2 at 37° C. The colon slices were then moved to glass-bottomed dishes, washed 3 times with D-PBS and observed under a confocal multiphoton microscope.
TPEF intensities were collected using detection windows of 390-450 nm and 520-650 nm, with 110 sections at a depth of 90-150 μm (mucosa) and 40 sections at a depth of 151-170 μm (submucosa).
Then ratiometric images were constructed from the TPEF intensities collected using the two detection window. The F2/F1 ratio was expressed as mean±SD and p was set to be smaller than 0.05.

[2] = tested on: rat colon tissue; experiment: Kinetic measurement of total sulfide in rat colon tissue slices; type: in vivo; conditions: probe 2-6; for kobs in colon tissue: after 5-FU 150 mg/kg i.p., 8 hours; for total sulfide concentration in colon tissue: after 5-FU treatment
Description: To quantitatively estimate the total sulfide concentration, kinetic experiments were performed in the colon tissue labeled with the compound of [Chemical Formula 2-6].
as §1, §2
Kinetic experiments in rat colon tissue were performed using four colon slices obtained from four rats. Two sets of experiments were performed for each slice. In each set, TPEF intensities from 8 ROI's/section were collected at depths of 90-150 μm (mucosa) and 151-170 μm (submucosa) in the colon tissue labeled with the compound of [Chemical Formula 2-6] and averaged.
The rate constant (kobs) was measured from 7 and 3 sections of the mucosa and submucosa tissues, respectively, in order to obtain 112 kobs and 48 kobs values, respectively. The rate constant (kobs) was expressed as mean±SD and p was set to be smaller than 0.05.

[3] = tested on: HeLa cells; experiment: Kinetic estimation of total sulfide concentration in HeLa cells (TPEF); type: cell-based, human
Description: To quantitatively estimate the total sulfide concentration in living cells, the TPEF intensity of HeLa cells labeled with the compound of [Chemical Formula 2-6] was monitored in the absence and presence of Na2S, cysteine (Cys) and glutathione (GSH) with 20-30 minute intervals.
Since H2S and HS^− are in equilibrium and [H2S]/[HS^−]=[H^+]/Ka=0.794 in HEPES/EtOH (1/1, pH=7.2), it seems appropriate to present the total sulfide concentration ([H2S]+[HS^−]).
Kinetic experiments in HeLa cells were conducted in the same manner except that TPEF intensities from HeLa cells labeled with the compound of [Chemical Formula 2-6] upon excitation at 750 nm were monitored with 20-30 minute intervals.
The average TPEF intensities at given time and the SB2/SA1 ratio was obtained by dividing the TPEF intensity of [Chemical Formula 2-6] at 390-450 nm by that of [Chemical Formula 2-5] at 525-650 nm in the HeLa cells (FIG. 1b) were used in the kobs calculation.
The kobs value was measured at 10 regions of interest (ROIs) from three independent cell lines.
To evaluate the effect of Na2S, cysteine and GSH, HeLa cells were incubated with the compound of [Chemical Formula 2-6] (2 μM) and then treated with Na2S (100, 300 μM), cysteine (500 μM) and GSH (500 μM) for 30 minutes. The cells were then washed 3 times with FBS-free DMEM and subjected to kinetic measurement.

[4] = One-photon absorption and emission spectra, fluorescence quantum yield; type: physicochemical; conditions: for 10^−4 ε: value is ε×10^−4
Description: The solvatochromic effect observed for the compound of [Chemical Formula 2-6] may have resulted from the […] dipole moment.
Absorption spectra were recorded on the Hewlett-Packard 8453 diode array spectrophotometer and fluorescence spectra were obtained with the Amico-Bowman series 2 luminescence spectrometer with a 1-cm standard quartz cell.

[5] = Measurement of two-photon cross section (fs fluorescence technique, rhodamine 6G reference); type: physicochemical; conditions: for Φδmax, two-photon action cross section: uncertainty ±15%
Description: Two-photon cross section (δ) was determined using a femtosecond (fs) fluorescence measurement technique.
The compound of [Chemical Formula 2-5] and the compound of [Chemical Formula 2-6] were dissolved in 20 mM HEPES buffer (pH 7.2) and 3.0×10^−6 M HEPES/EtOH (1/1) and then two-photon induced fluorescence intensity was measured at 740-940 nm using rhodamine 6G as a reference, whose two-photon property has been well characterized. The two-photon fluorescence intensities of the reference and the compound of [Chemical Formula 2-6] and the compound of [Chemical Formula 2-5] were determined.
The two-photon cross section was calculated from δ=δr(Ssφrφrcr)/(Srφsφscs). In the equation, the subscripts s and r stand for the sample, i.e., the compound of [Chemical Formula 2-6] and the compound of […], respectively. S denotes the intensity of the signal collected using a CCD detector, φ is the fluorescence quantum yield (measured using coumarin 307 and rhodamine B according to the literature), […] fluorescence collection efficiency, and c is the number density of molecules in solution. δr is the two-photon cross section of the reference molecule.

[6] = tested on: HeLa cells; experiment: Two-photon excited fluorescence spectra of labeled HeLa cells; type: cell-based, human
Description: Accordingly, it can be seen that HEPES/EtOH (1/1) has polarity similar to that of the cellular environment.
This confirms again that HEPES/EtOH (1/1) is a good model of the cellular environment and HS^− can be detected by TPM using the compound of [Chemical Formula 2-6].
HeLa human cervical carcinoma cells were acquired from the ATCC (Manassas, Va., USA). The cells were cultured in DMEM (WelGene, Inc., Seoul, Korea) supplemented with heat-inactivated 10% FBS (WelGene), penicillin (100 units/mL) and streptomycin ([…]).
For labeling, the growth medium was removed and replaced with DMEM without FBS. The cells were incubated with the compound of [Chemical Formula 2-6] ([…]) for 30 minutes, washed 3 times with FBS-free DMEM and imaged.
The TPM images were obtained with the DM IRE2 microscope (Leica) by exciting the probes with a mode-locked titanium-sapphire laser source (Coherent Chameleon, 90 MHz, 200 fs) set at a wavelength of 750 nm and an output power of 1380 mW, which corresponded to an average power of approximately 2 mW in the focal plane.

[7] = pH sensitivity of the fluorescence; type: physicochemical; conditions: biologically relevant pH range
[8] = physchem; conditions: pH 7.2
Description: The pKa value of H2S in HEPES/EtOH (1/1, pH 7.2) was estimated by using the following equations. HS^−+H2O⇄H2S+HO^− K1=[H2S][HO^−]/[HS^−] (1) H2O⇄H^++HO^− Kw=[H^+][HO^−] (2) H2S⇄H^++HS^− Ka=[H^+][HS^−]/[H2S]=Kw/K1 (3)
First, the pH of the solution containing 10.0 mM NaSH was measured in H2O/EtOH (1/1) at 37.0° C. using a pH meter.
The K1 value was calculated from the equation (1) using [HS^−]o=10.0 mM and pH=9.00.
The pKa value of H2S in HEPES/EtOH (1/1, pH 7.2) was then calculated from the equation (3) using K1=1.00×10^−8M and pKw=15.10 reported in H2O/EtOH (1/1).

[9] = HEPES buffer (20 mM HEPES, 100 mM KCl, pH 7.4)
[10] = cells treated with 500 μM additive, probe 2-6

Compound: O=c1[nH]cc(F)c(=O)[nH]1 [5-fluorouracil, reference compound]
emission ratio F2/F1 ([1]; mucosal layer): 0.98±0.07
emission ratio F2/F1 ([1]; submucosa): 0.84±0.05
kobs in colon tissue ([2]; mucosa): (4.0±0.7)×10^−5 s^−1
total sulfide concentration in colon tissue ([2]; mucosa): 14 ± 3 µM
kobs in colon tissue ([2]; submucosa): (2.3±0.6)×10^−5 s^−1
total sulfide concentration in colon tissue ([2]; submucosa): 7.9 ± 2.2 µM

Compound: [Na+].[Na+].[S-2] [Na2S]
kobs in labeled HeLa cells ([3]; cells pretreated with 100 μM Na2S, probe 2-6): (2.6±0.9)×10^−6 s^−1
total sulfide concentration ([H2S]+[HS^−]) in HeLa cells ([3]; cells pretreated with 100 μM Na2S, from kobs, k2=5.17 M^−1s^−1, [H2S]/[HS^−]=0.794): 0.90 ± 0.32 µM
kobs in labeled HeLa cells ([3]; cells pretreated with 300 μM Na2S, probe 2-6): (7.9±1.9)×10^−6 s^−1
total sulfide concentration ([H2S]+[HS^−]) in HeLa cells ([3]; cells pretreated with 300 μM Na2S, from kobs, k2=5.17 M^−1s^−1, [H2S]/[HS^−]=0.794): 2.7 ± 0.7 µM

Δλ^FImax, shift of emission spectrum with solvent polarity ([4]; 1,4-dioxane<DMF<EtOH<HEPES/EtOH (1/1)<HEPES buffer): 95 nm
Φ, fluorescence quantum yield ([4]; EtOH): 0.87
λ^(1)max, one-photon absorption maximum ([4]; EtOH): 381 nm
λ^flmax, one-photon emission maximum ([4]; EtOH): 498 nm
10^−4 ε ([4]; EtOH): (4.81) M^−1cm^−1
Φ, fluorescence quantum yield ([4]; HEPES buffer): 0.46
λ^(1)max, one-photon absorption maximum [4, 9]: 363 nm
λ^flmax, one-photon emission maximum [4, 9]: 548 nm
ε at maximum absorption ([4]; HEPES buffer, pH 7.4): 39100 M⁻¹ cm⁻¹
Φ, fluorescence quantum yield ([4]; HEPES/EtOH (1/1)): 0.81
λ^(1)max, one-photon absorption maximum ([4]; HEPES/EtOH (1/1)): 368 nm
λ^flmax, one-photon emission maximum ([4]; HEPES/EtOH (1/1)): 530 nm
10^−4 ε ([4]; HEPES/EtOH (1/1)): (4.77) M^−1cm^−1
10^−4 ε ([4]; HEPES): (3.91) M^−1cm^−1
λ^(2)max, two-photon maximum ([5]; HEPES): 750 nm
Φδmax, two-photon action cross section ([5]; HEPES buffer, 2-6 at 740 nm, 2-5 at 750 nm): 52 GM
λ^(2)max, two-photon maximum ([5]; HEPES/EtOH (1/1)): 750 nm
increase of action cross section (φδ) in HEPES/EtOH (1/1) versus HEPES buffer ([5]; HEPES/EtOH (1/1) vs HEPES buffer): about 2 fold
Φδmax, two-photon action cross section ([5]; HEPES/EtOH (1/1), GM = 10^−50 cm^4s/photon): 94 GM
λ^flmax, maximum emission in cells [6]: 520 nm
pH sensitivity [7]: pH-insensitive
Compound: COCCOCCC1(CCOCCOC)c2cc(N)ccc2-c2ccc(-c3nc4ccccc4s3)cc21 [Chemical Formula 2-5]

Compound: N[C@@H](CS)C(=O)O [Cys, cysteine]
kobs in labeled HeLa cells [3, 10]: (1.4±0.7)×10^−6 s^−1
total sulfide concentration ([H2S]+[HS^−]) in HeLa cells [3, 10]: 0.50 ± 0.23 µM

Compound: N[C@@H](CCC(=O)N[C@@H](CS)C(=O)NCC(=O)O)C(=O)O [GSH, glutathione]
kobs in labeled HeLa cells [3, 10]: (6.3±1.8)×10^−6 s^−1
total sulfide concentration ([H2S]+[HS^−]) in HeLa cells [3, 10]: 2.2 ± 0.6 µM

Compound: S [H2S, Hydrogen sulfide]
pKa [8]: 7.1
